Measurements: PMC6273304, “Efficient Double Suzuki Cross-Coupling Reactions of 2,5-Dibromo-3-hexylthiophene: Anti-Tumor, Haemolytic, Anti-Thrombolytic and Biofilm Inhibition Studies” (Molecules, 2016)
Values joined by “and” are separate entries in the source; they are usually repeats but may differ in a detail not shown here. Identical values can stand only once.

How the values were obtained:
human blood clots = assay: Anti-thrombolytic activity (in vitro clot lysis); details: 100 μL sample, 90 min at 37 °C
Source text: Cerebral Venous Sinus Thrombosis (CVST) is a central nervous disorder, which is a common disease caused by thrombophilia and […]. This fatal disease has been treated by the application of intravenous heparin and warfarin drugs. Now a days, this disease is usually cured by thrombolytic drugs, such as urokinase and streptokinase, which are playing a significant effect in the cure of CVST [25]. In the present study, we have explored the potential of our newly synthesized thiophene derivatives for anti-thrombolytic activity by the procedure reported elsewhere. […] This highest value of % lysis achieved by 3g can be attributed to the electron-withdrawing fluorine and chlorine groups on the aromatic ring.
The anti-thrombolytic activity of all newly-synthesized thiophene derivatives was investigated by following the previously-reported method. In a typical procedure, the sterile eppendorfs were filled with fresh venous blood taken from the human volunteers. The eppendorf tubes, which contained human blood (500 μL), were placed for 45 min at 37 °C to allow for clot formation. Once the clots were formed, the known volumes (100 μL) of sample solutions (3a–i) were added in eppendorfs having no serum in the blood samples. Basically, the serum was removed from blood prior to the clot formation stage. After the addition of samples, the tubes were incubated again for 90 min at 37 °C. For each experiment, the compound Streptokinase was used as a positive control, while water was used as a negative control. The anti-thrombolytic activity of newly-synthesized products was determined at percentage.

MCF-7 cells = assay: MTT assay, anti-tumor activity against MCF-7 cells; type: cell-based, human
Source text: (§1) Metastasis is the major reason of morbidity and mortality in cancer disease. In breast cancer patients, several tissues involving liver, lung, bone, and lymph node are affected by tumor involvement. The anti-tumor activities of all newly-synthesized thiophene derivatives were screened for human breast cancer cell lines 4T1, MDA-MB-231, and MCF-7 using MTT (3-(4,5-dimethylthiazol-2-yl)-2,5-diphenyltetrazolium bromide) assay in vitro. Cisplatin was used as a standard anti-tumor drug in this assay. […] The highest activity of 3h might have been due to the presence of electron-donating methylthio group (-SMe) on aromatic phenyl ring.
The anti-tumor activity of these compounds was also studied for MCF-7 breast cancer cell line.
(§2) In brief, 0.8 × 10^5 cells/mL were seeded in 96-well plates and were incubated in a humidified CO2 incubator overnight. The following day, serial dilution of the samples was performed with various concentration. The plates were left to incubate with the treatment for 72 h. After the designated time, 20 μL of MTT (5 mg/mL) was inserted into each of the wells and the cells were further incubated for an additional 4 h. Later, the media and the treatment were removed from all of the wells and 100 μL of DMSO was added. The absorbance plates were then read using a spectrophotometer (BioTek) at 570 nm.

red blood cells (RBCs) = assay: Haemolytic activity; type: cell-based; details: 30 min, pH 7.4
Source text: The newly-synthesized molecules (3a–i) were also examined for their hemolytic activity, following the method reported by Powell and co-workers. The standard drug Triton X-100 was employed as a reference in these measurements. […] Ding et al. reported that chloro group-containing molecules display facile haemolytic activity as compared with those compounds having a methyl group substitution on the ring.
The hemolytic activity of newly synthesized thiophene derivatives was examined by following the previously-reported method. For these measurements, the solutions of the thiophene derivatives were prepared in ethyl acetate. In brief, about 3 mL of newly-obtained heparinized blood was taken in 15 mL sterile Falcon tube, which was later centrifuged for 5 min at 850 rpm. The supernatant was removed and washed three times and was later placed at room temperature for 30 min. In order to wash the thick pellet, 5 mL of ice-cold (4 °C) phosphate-buffered saline (PBS) having pH 7.4 was employed. The same PBS buffer (20 mL) was used to maintain the cells over longer periods of time. The erythrocytes present in cells were measured and diluted with PBS buffer. Approximately 180 µL of this suspension of erythrocytes was taken along with 20 µL of sample solution (3a–i) in eppendorfs. These eppendorfs were incubated thermally at human body temperature for 30 min, followed by centrifuging at 1310 rpm again for 5 min. After significant centrifugation, the supernatant was removed and diluted with phosphate-buffered saline (900 µL) and was later placed on ice. Each sample solution (200 µL) was kept in 96-well culture plates. For each measurement, phosphate-buffered saline and 0.1% Triton X-100 were employed as negative and positive control, respectively. A quant instrument was used to observe the absorbance of all sample solutions at 576 nm.

4T1 cells = assay: MTT assay, anti-tumor activity against 4T1 cells; type: cell-based; details: 72 h treatment
Source text: as §1, §2

Escherichia coli = assay: Biofilm inhibition assay; type: cell-based; details: E. coli, 50 μM/mL, 24 h at 37 °C
Protocol: Pathogenic micro-organisms form a biofilm, which mainly causes morbidness and mortality. This biofilm consists of conglomerations of bacterial cells and secured by a polymeric substance created by itself. Several fatal infections are caused by biofilms and they are difficult to remove. The inhibition activities of all newly-synthesized thiophene derivatives (3a–i) against biofilm formation were assayed using the previously-reported method. The experimentally-determined biofilm inhibition values for all compounds are expressed in Table 3. A selected strain of Gram-negative bacteria (Escherichia coli) was used to determine the anti-bacterial activity of all new derivatives at concentration of 50 μM/mL. […] A likely possible cause of this high activity can be attributed to the electron-withdrawing substituents attached with the aromatic phenyl ring of 3d, which might have been playing a significant role for increasing the anti-bacterial activity of this compound against Gram-negative bacteria. We believe that our newly-developed thiophene-based compounds with high % inhibition values can be potentially used to control the formation of biofilms.
The newly-synthesized thiophene derivatives were assayed for their biofilm inhibition activity using the previously reported method. For these measurements, the solutions of the thiophene derivatives were prepared in ethyl acetate. In brief, about 100 μL of sample solutions (3a–i) and 100 μL nutrient broth (Oxoid, Hampshire, UK) along with bacterial suspension (20 μL) were placed on the wells of 96-well sterile culture plates. Rifampicin was used as a positive control, while nutrient broth was used as a negative control for these biofilm inhibition activity measurements. The plates were covered and incubated for 24 h at 37 °C. Each plate was washed three times by using 220 μL of phosphate-buffered solution. After washing, each plate was shaken strongly in order to remove the non-adherent bacteria. 220 μL of 99% methanol solution was used to fix the remaining bacteria from these plates, followed by the drying in hot oven. After drying, the plates were stained with […] of crystal violet with a concentration of […] for five minutes. The excess stain from these plates was removed simply by using tap water. About 220 µL glacial acetic acid (33% concentration) was used to remove the dye attached with the cells. Each well was examined for OD value with the help of the micro-plate reader (BioTek, Winooski, VT, USA) at 630 nm.

MDA-MB-231 cells = assay: MTT assay, anti-tumor activity against MDA-MB-231 cells; type: cell-based, human; details: 72 h treatment
Source text: as §1
The anti-tumor activity of all newly-synthesized compounds was also examined against MDA-MB-231 breast cancer cells. […] It is likely possible that the electron-withdrawing iodo groups (-I) attached with phenyl ring might have been affecting the cytotoxicity of MDA-MB-231 cells.
as §2

[1] = Homo sapiens, MCF7, 72 h treatment

| Compound | % Lysis (clot lysis, anti-thrombolytic activity) (human blood clots) | IC50 (MCF-7 cells; [1]) [µM] | % Lysis of RBC (red blood cells (RBCs)) [%] | IC50 (4T1 cells; 4T1, 72 h) [µM] | inhibition at 50 µM (Escherichia coli) [%] | IC50 (MDA-MB-231 cells; Homo sapiens) [µM] | IC50 (4T1 cells) [µM] | IC50 (MCF-7 cells; 72 h treatment) | IC50 (MDA-MB-231 cells) |
| --- | --- | --- | --- | --- | --- | --- | --- | --- | --- |
| CCCCCCc1cc(-c2ccc(I)cc2)sc1-c1ccc(I)cc1 [Compound 3e, 3-Hexyl-2,5-bis(4-iodophenyl)thiophene] | 32.42 ± 0.046% | 91.4 ± 0.59 | 3.62 ± 0.024 | 21.5 ± 3.71 | 73.8 ± 0.032 | 22.9 ± 3.8 | – | – | – |
| CCCCCCc1cc(-c2ccc(Cl)cc2)sc1-c1ccc(Cl)cc1 [Compound 3d, 2,5-Bis(4-chlorophenyl)-3-hexylthiophene] | 2.04 ± 0.091% | 27.5 ± 0.67 | 6.66 ± 0.057 | 22.8 ± 0.04 | 78.85 ± 0.057 | 24.8 ± 0.56 | – | – | – |
| CCCCCCc1cc(-c2cc(F)cc(F)c2)sc1-c1cc(F)cc(F)c1 [Compound 3f, 2,5-Bis(3,5-difluorophenyl)-3-hexylthiophene] | 12.34 ± 0.073% | 42.8 ± 2.87 | – | 31.5 ± 1.1 | 69.68 ± 0.049 | 28.1 ± 0.72 | – | – | – |
| CCCCCCc1cc(-c2cccc(C(C)=O)c2)sc1-c1cccc(C(C)=O)c1 [Compound 3i, 2,5-Bis(3-acetylphenyl)-3-hexylthiophene] | 1.84 ± 0.083% | 36.8 ± 0.03 | – | 23.2 ± 0.08 | 76.86 ± 0.083 | 36.8 ± 0.82 | – | – | – |
| CCCCCCc1cc(-c2ccc(C)cc2)sc1-c1ccc(C)cc1 [Compound 3a, 2,5-Bis(4-methylphenyl)-3-hexylthiophene] | 16.25 ± 0.028% | 26.2 ± 0.7 | – | 30.5 ± 0.08 | 62.5 ± 0.038 | 36.8 ± 0.21 | – | – | – |
| Streptokinase [reference compound] | 100% | – | – | – | – | – | – | – | – |
| CCCCCCc1cc(-c2ccc(SC)cc2)sc1-c1ccc(SC)cc1 [Compound 3h, 3-Hexyl-2,5-bis(4-(methylthio)phenyl)thiophene] | 0.27 ± 0.021% | 35.1 ± 3.8 | – | 16 | 27.12 ± 0.039 | 29.2 ± 0.04 | 16.1 ± 0.09 | – | – |
| CCCCCCc1cc(-c2cc(C)cc(C)c2)sc1-c1cc(C)cc(C)c1 [Compound 3b, 2,5-Bis(3,5-dimethylphenyl)-3-hexylthiophene] | 25.32 ± 0.092% | 33.8 ± 0.29 | 4.54 ± 0.014 | 30 ± 0.81 | 59.48 ± 0.073 | 32.2 ± 2.73 | – | – | – |
| CCCCCCc1cc(-c2ccc(OC)cc2)sc1-c1ccc(OC)cc1 [Compound 3c, 3-Hexyl-2,5-bis(4-methoxyphenyl)thiophene] | 41.12% and 41.12 ± 0.035% | 35.7 ± 0.09 | 5.80 ± 0.045 | 29.5 ± 4.3 | 73.27 ± 0.023 | 40 ± 0.41 | – | – | – |
| N.N.[Cl][Pt][Cl] [Cisplatin, reference compound] | – | – | – | – | – | – | 21.5 | 48 µM and 48.3 µM | 29 µM and 29.1 µM |
| CCCCCCc1cc(-c2ccc(F)c(Cl)c2)sc1-c1ccc(F)c(Cl)c1 [Compound 3g, 2,5-Bis(3-chloro-4-fluorophenyl)-3-hexylthiophene] | 53.12% and 53.12 ± 0.063% | 44 ± 0.17 | 15.57 ± 0.034 | 22 ± 0.57 | 75.53 ± 0.041 | 26.2 ± 0.28 | – | – | – |
